In brackets after ≈: the same amount, converted by molar mass. Like-named read-outs stand apart in the source and are kept apart here.
Experiments:
[1] = Mammalian cytotoxicity assay (resazurin), COS-1 cells; format: cell-based; conditions: African green monkey, read-out: Cytotox. COS-1
Description: (§1) COS-1 and CHO-K1 cell suspensions were prepared, seeded into 96-well tissue culture treated black-walled microtiter plates (density determined by cell line), and incubated overnight at 37° C., in 5% CO2 and approximately 95% humidity. The following day, serial dilutions of compound were prepared under sterile conditions and transferred to cell plates. Cell/Compound plates were incubated under the above conditions for 24 hours. Following the incubation period, media/compound was aspirated and 50 μl of resazurin (0.042 mg/ml in PBS w/Ca and Mg) is added. The plates were then incubated under the above conditions for 2 hours and then placed in the dark at room temperature for an additional 30 minutes. Fluorescence measurements were taken (excitation 535 nm, emission 590 nm). The IC50 (concentration of compound causing 50% growth inhibition) was then calculated. Table 3 includes IC50 data for several substituted tetracycline compounds.

gram positive bacteria = assay: In vitro anti-bacterial activity assay (broth dilution MIC), gram positive bacteria; format: cell-based, S. aureus; conditions: 18 h
From the text: (§2) Bacterial infections may be caused by a wide variety of gram positive and gram negative bacteria. Some of the compounds of the invention are useful as antibiotics against organisms which are resistant and/or sensitive to other tetracycline compounds. The antibiotic activity of the tetracycline compounds of the invention may by using the in vitro standard broth dilution method described in Waitz, J. A., CLSI, Document M7-A2, vol. 10, no. 8, pp. 13-20, 2nd edition, Villanova, Pa. (1990).
(§3) The following assay was used to determine the efficacy of the tetracycline compounds against gram positive and gram negative bacteria. 2 mg of each compound was dissolved in 100 μl of DMSO. […] The tetracycline compound solutions were diluted to 50 μL volumes, with a test compound concentration of 0.098 μg/ml. Optical density (OD) determinations were made from fresh log-phase broth cultures of the test strains. Dilutions were made to achieve a final cell density of […] CFU/ml. At OD=1, cell densities for different genera were approximately:
(§4) 50 μl of the cell suspensions were added to each well of microtiter plates. The final cell density was approximately 5×10^5 CFU/ml. These plates were incubated at 35° C. in an ambient air incubator for approximately 18 hours. The plates were read with a microplate reader and were visually inspected when necessary. The MIC was defined as the lowest concentration of the tetracycline compound that inhibits growth. Table 3 includes MIC data for several substituted tetracycline compounds.

gram negative bacteria = assay: In vitro anti-bacterial activity assay (broth dilution MIC), gram negative bacteria; format: cell-based, E. coli
From the text: as §2, §3, §4

in vitro = format: cell-based; conditions: Chinese hamster, Cytotox. CHO-K1
Description: as §1

3T3 fibroblast cells = assay: In vitro phototoxicity assay (neutral red; UV light-treated vs dark control plates); format: cell-based; conditions: for Photo Toxicity UV Tox50: UV light 50 minutes; for Photo Toxicity Dark Tox50: dark control plate
Description: 3T3 fibroblast cells were harvested and plated at a concentration of 1×10^5 cells/mL and the plates were incubated overnight at 37° C., in 5% CO2 and approximately 95% humidity. On the following day the medium was removed from the plates and replaced with Hanks' Balanced Salt Solution (HBSS). Compound dilutions were made in HBSS and added to the plates. For each compound tested, a duplicate plate was prepared that was not exposed to light as a control for compound toxicity. Plates were then incubated in a dark drawer (for controls), or under UV light (meter reading of 1.6-1.8 mW/cm^2) for 50 minutes. Cells were then washed with HBSS, fresh medium was added, and plates were incubated overnight as described above. The following day neutral red was added as an indicator of cell viability. The plates were then incubated for an additional 3 hours. Cells were then washed with HBSS and blotted on absorbent paper to remove excess liquid. A solution of 50% EtOH, 10% glacial acetic acid was added and after 20 minutes incubation the plate's absorbance at 535 nm was read using a Wallac Victor 5 spectrophotometer. The phototoxicity reflected the difference between the light-treated and control cultures. Table 3 includes phototoxicity (μM) data for several substituted tetracycline compounds.

[2] = Staphylococcus aureus, S. aureus MRSA5, read-out: Median MIC's G+ S. aureus MRSA5
[3] = Staphylococcus aureus, S. aureus RN450, read-out: Median MIC's G+ S. aureus RN450
[4] = Streptococcus pneumoniae, S. pneumoniae 157E-Strep, read-out: Median MIC's G+ S. pneumoniae 157E-Strep
[5] = Escherichia coli, 18 h, E. coli D1 209, read-out: Median MIC's G− E. coli D1 209
[6] = Escherichia coli, 18 h, E. coli MG 1655, read-out: Median MIC's G− E. coli MG 1655
[7] = Escherichia coli, ATCC25922, 18 h, E. coli ATCC 25922, read-out: Median MIC's G− E. coli ATCC 25922
[8] = Pseudomonas aeruginosa, 18 h, P. aeruginosa K201 PAO6609, read-out: Median MIC's G− P. aeruginosa K201 PAO6609

Structure (SMILES) | IC50 at 24 h [1] [µM] | MIC (gram positive bacteria; [2]) [µg/mL] | MIC (gram positive bacteria; [3]) [µg/mL] | MIC (gram positive bacteria; [4]) [µg/mL] | MIC (gram negative bacteria; [5]) [µg/mL] | MIC (gram negative bacteria; [6]) [µg/mL] | MIC (gram negative bacteria; [7]) [µg/mL] | MIC (gram negative bacteria; [8]) [µg/mL] | IC50 at 24 h (in vitro) [µM] | Photo Toxicity UV Tox50 (3T3 fibroblast cells) | Photo Toxicity Dark Tox50 (3T3 fibroblast cells) | MIC (gram negative bacteria; Escherichia coli, 18 h, read-out: Median MIC's G− E. coli D1 209, E. coli D1 209) [µg/mL]
CN(C)[C@@H]1C(O)=C(C(N)=O)C(=O)[C@@]2(O)C(O)=C3C(=O)c4c(O)ccc(-c5cccc(C(=O)NCCN6CCCCC6)c5)c4C[C@H]3C[C@@H]12 [U] | > 41 | 8 (≈ 12.4 µM) | 0.25 (≈ 0.388 µM) | 0.06 (≈ 0.0931 µM) | 8 (≈ 12.4 µM) | 4 (≈ 6.2 µM) | 4 (≈ 6.2 µM) | 64 (≈ 99.3 µM) | > 41 | >132.37 µM | >132.37 µM | –
CN(C)CCc1ccc(O)c2c1C[C@H]1C[C@H]3[C@H](N(C)C)C(O)=C(C(N)=O)C(=O)[C@@]3(O)C(O)=C1C2=O [BD] | > 121 | 32 (≈ 65.9 µM) | 0.5 (≈ 1.03 µM) | 0.13 (≈ 0.268 µM) | 64 (≈ 132 µM) | 4 (≈ 8.24 µM) | 4 (≈ 8.24 µM) | 64 (≈ 132 µM) | > 121 | M: >120.91 uM | M: >120.91 uM | –
CN1CCN(C(=O)c2cccc(-c3ccc(O)c4c3C[C@H]3C[C@H]5[C@H](N(C)C)C(O)=C(C(N)=O)C(=O)[C@@]5(O)C(O)=C3C4=O)c2)CC1 [C] | > 138 | 64 (≈ 104 µM) | 0.25 (≈ 0.405 µM) | 0.06 (≈ 0.0973 µM) | 64 (≈ 104 µM) | 32 (≈ 51.9 µM) | 8 (≈ 13 µM) | 64 (≈ 104 µM) | > 138 | >137.76 µM | >137.76 µM | –
CC(=O)NCCC(=O)c1ccc(O)c2c1C[C@H]1C[C@H]3[C@H](N(C)C)C(O)=C(C(N)=O)C(=O)[C@@]3(O)C(O)=C1C2=O [CI] | > 160 | 64 (≈ 121 µM) | 2 (≈ 3.79 µM) | 2 (≈ 3.79 µM) | 64 (≈ 121 µM) | 64 (≈ 121 µM) | 64 (≈ 121 µM) | 64 (≈ 121 µM) | > 160 | >159.57 µM | >159.57 µM | –
CC(C)N(C)CC(=O)c1ccc(O)c2c1C[C@H]1C[C@H]3[C@H](N(C)C)C(O)=C(C(N)=O)C(=O)[C@@]3(O)C(O)=C1C2=O [AJ] | > 150 | 0.5 (≈ 0.948 µM) | 0.06 (≈ 0.114 µM) | 0.06 (≈ 0.114 µM) | 1 (≈ 1.9 µM) | 0.25 (≈ 0.474 µM) | 0.25 (≈ 0.474 µM) | 32 (≈ 60.7 µM) | > 150 | >149.87 µM | >149.87 µM | –
COC(=O)c1ccc(-c2ccc(O)c3c2C[C@H]2C[C@H]4[C@H](N(C)C)C(O)=C(C(N)=O)C(=O)[C@@]4(O)C(O)=C2C3=O)cc1 [AR] | 4.8 | 0.315 (≈ 0.574 µM) | 0.06 (≈ 0.109 µM) | 0.25 (≈ 0.456 µM) | – | – | – | – | < 2.53 | – | – | 64 (≈ 117 µM)
COc1ccc(CNCc2ccc(-c3ccc(O)c4c3C[C@H]3C[C@H]5[C@H](N(C)C)C(O)=C(C(N)=O)C(=O)[C@@]5(O)C(O)=C3C4=O)cc2)cc1 (stereo in doubt) [AW] | < 1.97 | 1 (≈ 1.56 µM) | 0.06 (≈ 0.0938 µM) | 0.06 (≈ 0.0938 µM) | 1 (≈ 1.56 µM) | – | – | – | 13.5 | – | – | –
CN(C)C(=O)c1cccc(-c2ccc(O)c3c2C[C@H]2C[C@H]4[C@H](N(C)C)C(O)=C(C(N)=O)C(=O)[C@@]4(O)C(O)=C2C3=O)c1 [AC] | > 37.6 | 16 (≈ 28.5 µM) | 0.25 (≈ 0.445 µM) | – | 64 (≈ 114 µM) | – | – | – | > 9.4 | – | – | –
CC(C)OC(=O)c1cccc(-c2ccc(O)c3c2C[C@H]2C[C@H]4[C@H](N(C)C)C(O)=C(C(N)=O)C(=O)[C@@]4(O)C(O)=C2C3=O)c1 [AU] | 4.56 | 1 (≈ 1.73 µM) | 0.25 (≈ 0.434 µM) | 0.5 (≈ 0.867 µM) | 64 (≈ 111 µM) | – | – | – | 6.12 | – | – | –
CN(C)c1cc(-c2ccc(CN3CCN(CCO)CC3)o2)c(O)c2c1C[C@H]1C[C@H]3[C@H](N(C)C)C(O)=C(C(N)=O)C(=O)[C@@]3(O)C(O)=C1C2=O [BA] | > 111 | 64 (≈ 96.1 µM) | 1 (≈ 1.5 µM) | 2 (≈ 3 µM) | 64 (≈ 96.1 µM) | – | – | – | > 111 | – | – | –
CN1CCN(Cc2ccc(-c3ccc(O)c4c3C[C@H]3C[C@H]5[C@@H](N(C)C)C(O)=C(C(N)=O)C(=O)[C@@]5(O)C(O)=C3C4=O)o2)CC1 [AY] | > 32 | 32 (≈ 54 µM) | 0.5 (≈ 0.844 µM) | 0.25 (≈ 0.422 µM) | 64 (≈ 108 µM) | – | – | – | > 32 | – | – | –
CN(C)[C@@H]1C(O)=C(C(N)=O)C(=O)[C@@]2(O)C(O)=C3C(=O)c4c(O)ccc(-c5ccccc5)c4C[C@H]3C[C@@H]12 [AQ] | 6.06 | 0.25 (≈ 0.51 µM) | 0.06 (≈ 0.122 µM) | 0.06 (≈ 0.122 µM) | 8 (≈ 16.3 µM) | – | – | – | 6.91 | – | – | –
CC(=O)c1cccc(-c2ccc(O)c3c2C[C@H]2C[C@H]4[C@H](N(C)C)C(O)=C(C(N)=O)C(=O)[C@@]4(O)C(O)=C2C3=O)c1 [AS] | – | 0.5 (≈ 0.939 µM) | 0.06 (≈ 0.113 µM) | 0.06 (≈ 0.113 µM) | 64 (≈ 120 µM) | – | – | – | – | – | – | –
CN(C)[C@@H]1C(O)=C(C(N)=O)C(=O)[C@@]2(O)C(O)=C3C(=O)c4c(O)ccc(-c5ccc(CN6CCOCC6)o5)c4C[C@H]3C[C@@H]12 [AX] | 27.1 | 4 (≈ 6.9 µM) | 0.06 (≈ 0.104 µM) | 0.06 (≈ 0.104 µM) | 8 (≈ 13.8 µM) | – | – | – | > 32.6 | – | – | –
COCc1cccc(-c2ccc(O)c3c2C[C@H]2C[C@H]4[C@H](N(C)C)C(O)=C(C(N)=O)C(=O)[C@@]4(O)C(O)=C2C3=O)c1 [DB] | 10.4 | 0.5 (≈ 0.935 µM) | 0.06 (≈ 0.112 µM) | 0.06 (≈ 0.112 µM) | 64 (≈ 120 µM) | – | – | – | 13.2 | – | – | –
